Key:
[1] = tested on: C57BL/6 J mice engrafted with Eµ-MTCP1 splenocytes; assay: Eµ-MTCP1 adoptive transfer murine CLL model; format: in vivo, mouse; conditions: 12.5mg/kg tail vein injection, every week
Procedure: All animal studies were carried out under protocols approved by The Ohio State University Institutional Animal Care and Use Committee (IACUC). Previously, 1 × 10^6 splenocytes from Eµ-MTCP1 mice, which recently were described to mimic human CLL, were resuspended in PBS and injected via tail vein into male C57BL/6 J from The Jackson Laboratory. Mice were monitored for development of peripheral disease by flow cytometry, measuring the percentage of CD5^+/CD19^+ cells in peripheral blood. Complete in vivo methods may be found in the supplementary material.
In vitro systems generally lack the full microenvironment that can lead to tumor cell resistance and survival. Next, we sought to assess the in vivo efficacy of VIP152 to better evaluate its potential clinical utility in patients with CLL. To accomplish this we used a novel transgenic model of CLL (Eµ-MTCP1 model) developed recently by our group that is characterized by CD5^+/CD19^+ and B220^Dim expansion in the blood. Splenocytes from diseased Eµ-MTCP1 mice were serially engrafted via tail vein injection and monitored for leukemia via weekly flow cytometry (Fig. 5A). Mice were randomized to vehicle versus VIP152 at the time blood disease was evident and treated every week until endpoint. […] Mice in the VIP152 treatment group had improved overall survival compared with vehicle with a median survival of 46 days vs 32 days respectively (Fig. 5D – p < 0.005). Following enrollment two mice had reduction in disease that was sustained below 10% for the duration of study and these mice were censored after 100 days upon which treatment was ceased. Two months following treatment cessation these mice succumbed to likely illness with evident splenomegaly. […]
Transcriptase. cDNA was immediately taken for qPCR using TaqMan Fast Advanced Master Mix using […]
Upon reaching 80% disease, these mice were euthanized and spleens were harvested. Splenocytes from a single donor were then used for the studies described here. 1 x 10^6 splenocytes were again injected via tail vein into male C57BL/6J mice and monitored via flow cytometry as previously described for development of disease as defined by ≥10% CD45+/CD5+/CD19+32. Upon reaching 10% disease, mice were randomly enrolled into one of two treatment arms: tail vein injection of 12.5mg/kg VIP152 dissolved in (30/10/60 v/v/v PEG400/EtOH/0.5% Tween-80 in water) or vehicle control.
Flow Cytometry analysis of blood […]
Anti-Mouse CD45R/B220 – cat. […] Data were analyzed using Kaluza Analysis Software (Beckman-Coulter v2.1).
Mass spectra from all samples (N = 12) were converted to mzML with ProteoWizard and OpenMS (v 2.5.0)30,31. Features from converted files were detected with Biosaur and searched on the OpenMS platform with […]

CDK4 = CDK4 (Homo sapiens, UniProt P11802); assay: KINOMEscan: CDK4; format: binding; conditions: 1000 nM, read-out: Percent Control
Sequence of CDK4 (P11802 whole entry): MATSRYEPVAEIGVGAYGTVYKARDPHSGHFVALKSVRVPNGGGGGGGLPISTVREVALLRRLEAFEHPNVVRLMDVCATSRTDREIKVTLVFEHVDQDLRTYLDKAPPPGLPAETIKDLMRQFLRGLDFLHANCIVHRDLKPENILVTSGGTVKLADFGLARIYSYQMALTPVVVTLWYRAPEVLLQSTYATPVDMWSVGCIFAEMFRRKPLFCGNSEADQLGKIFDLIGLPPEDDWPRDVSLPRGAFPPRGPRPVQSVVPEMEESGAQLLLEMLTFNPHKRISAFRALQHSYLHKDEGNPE

AMPK-alpha1 = AMPK-alpha1 (Homo sapiens, UniProt Q13131); assay: KINOMEscan: AMPK-alpha1; format: binding; conditions: 1000 nM, read-out: Percent Control
MST1R = MST1R (Homo sapiens, UniProt Q04912); assay: KINOMEscan: MST1R; format: binding; conditions: 1000 nM, read-out: Percent Control
Sequence of MST1R (Q04912 25-1400): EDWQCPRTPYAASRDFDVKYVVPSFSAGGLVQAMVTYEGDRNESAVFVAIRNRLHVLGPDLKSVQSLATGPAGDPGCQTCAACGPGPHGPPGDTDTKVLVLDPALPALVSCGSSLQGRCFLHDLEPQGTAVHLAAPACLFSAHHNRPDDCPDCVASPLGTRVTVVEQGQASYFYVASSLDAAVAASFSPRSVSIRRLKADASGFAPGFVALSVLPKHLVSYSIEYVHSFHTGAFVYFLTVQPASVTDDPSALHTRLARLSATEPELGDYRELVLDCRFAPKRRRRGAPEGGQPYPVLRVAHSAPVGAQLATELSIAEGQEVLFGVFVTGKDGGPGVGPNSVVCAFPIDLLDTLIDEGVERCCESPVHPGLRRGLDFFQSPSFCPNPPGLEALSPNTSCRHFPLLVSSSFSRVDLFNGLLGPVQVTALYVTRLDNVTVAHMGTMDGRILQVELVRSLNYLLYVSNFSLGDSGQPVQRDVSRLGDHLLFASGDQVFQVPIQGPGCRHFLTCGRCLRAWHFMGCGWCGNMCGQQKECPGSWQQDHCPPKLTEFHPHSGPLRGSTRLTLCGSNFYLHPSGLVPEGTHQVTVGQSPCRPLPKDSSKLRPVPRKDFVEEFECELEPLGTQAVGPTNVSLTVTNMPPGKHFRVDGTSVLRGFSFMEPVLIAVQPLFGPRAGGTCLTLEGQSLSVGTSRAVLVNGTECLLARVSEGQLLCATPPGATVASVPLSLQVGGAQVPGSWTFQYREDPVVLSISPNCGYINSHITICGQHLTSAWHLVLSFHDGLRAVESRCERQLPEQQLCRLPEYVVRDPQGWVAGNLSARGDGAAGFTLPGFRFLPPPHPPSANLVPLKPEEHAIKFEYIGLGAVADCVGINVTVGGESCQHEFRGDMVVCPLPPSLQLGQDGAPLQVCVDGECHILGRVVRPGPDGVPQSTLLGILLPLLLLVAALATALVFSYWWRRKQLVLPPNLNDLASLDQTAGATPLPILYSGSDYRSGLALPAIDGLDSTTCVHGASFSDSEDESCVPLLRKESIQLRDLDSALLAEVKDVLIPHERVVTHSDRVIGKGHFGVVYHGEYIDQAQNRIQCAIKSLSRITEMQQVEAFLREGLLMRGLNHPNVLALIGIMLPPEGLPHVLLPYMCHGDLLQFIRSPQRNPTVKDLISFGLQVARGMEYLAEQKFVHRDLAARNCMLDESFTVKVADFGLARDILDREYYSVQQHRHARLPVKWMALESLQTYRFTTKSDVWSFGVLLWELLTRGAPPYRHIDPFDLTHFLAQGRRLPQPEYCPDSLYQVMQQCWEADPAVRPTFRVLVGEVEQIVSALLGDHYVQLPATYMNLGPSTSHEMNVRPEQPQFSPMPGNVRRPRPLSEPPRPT

ABL2 = ABL2 (Homo sapiens, UniProt P42684); assay: KINOMEscan: ABL2; format: binding; conditions: 1000 nM, read-out: Percent Control
Sequence of ABL2 (P42684 whole entry): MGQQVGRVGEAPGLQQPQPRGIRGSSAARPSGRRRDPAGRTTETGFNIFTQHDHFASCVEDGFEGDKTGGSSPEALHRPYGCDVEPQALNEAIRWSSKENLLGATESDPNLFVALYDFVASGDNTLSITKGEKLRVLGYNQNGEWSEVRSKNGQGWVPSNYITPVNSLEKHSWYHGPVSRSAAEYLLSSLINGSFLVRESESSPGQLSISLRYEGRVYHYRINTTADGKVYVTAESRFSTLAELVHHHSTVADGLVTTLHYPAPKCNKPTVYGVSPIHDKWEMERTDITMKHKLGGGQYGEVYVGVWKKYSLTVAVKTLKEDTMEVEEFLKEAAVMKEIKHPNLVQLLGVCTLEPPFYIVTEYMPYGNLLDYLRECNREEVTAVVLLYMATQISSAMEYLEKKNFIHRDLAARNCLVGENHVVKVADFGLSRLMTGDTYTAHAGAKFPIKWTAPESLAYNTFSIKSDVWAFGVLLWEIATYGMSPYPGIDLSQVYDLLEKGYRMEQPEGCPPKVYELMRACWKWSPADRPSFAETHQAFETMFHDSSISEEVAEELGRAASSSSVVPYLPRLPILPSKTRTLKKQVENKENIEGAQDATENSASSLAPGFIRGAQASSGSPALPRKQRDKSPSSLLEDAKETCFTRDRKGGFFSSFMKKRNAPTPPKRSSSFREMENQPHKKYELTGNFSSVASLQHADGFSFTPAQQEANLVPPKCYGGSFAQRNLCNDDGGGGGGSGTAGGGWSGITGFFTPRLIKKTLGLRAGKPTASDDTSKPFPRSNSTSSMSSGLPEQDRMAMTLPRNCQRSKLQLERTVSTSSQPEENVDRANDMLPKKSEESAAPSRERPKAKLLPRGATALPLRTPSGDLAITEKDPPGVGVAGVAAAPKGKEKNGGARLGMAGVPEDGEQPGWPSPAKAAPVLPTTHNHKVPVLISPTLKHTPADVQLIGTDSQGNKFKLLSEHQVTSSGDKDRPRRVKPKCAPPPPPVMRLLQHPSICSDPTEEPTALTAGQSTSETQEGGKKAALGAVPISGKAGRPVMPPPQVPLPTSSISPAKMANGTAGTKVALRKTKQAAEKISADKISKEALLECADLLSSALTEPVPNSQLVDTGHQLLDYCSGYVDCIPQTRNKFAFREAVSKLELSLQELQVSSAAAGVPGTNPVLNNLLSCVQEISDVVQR

CLK3 = CLK3 (Homo sapiens, UniProt P49761); assay: KINOMEscan: CLK3; format: binding; conditions: 1000 nM, read-out: Percent Control
Sequence of CLK3 (P49761 whole entry): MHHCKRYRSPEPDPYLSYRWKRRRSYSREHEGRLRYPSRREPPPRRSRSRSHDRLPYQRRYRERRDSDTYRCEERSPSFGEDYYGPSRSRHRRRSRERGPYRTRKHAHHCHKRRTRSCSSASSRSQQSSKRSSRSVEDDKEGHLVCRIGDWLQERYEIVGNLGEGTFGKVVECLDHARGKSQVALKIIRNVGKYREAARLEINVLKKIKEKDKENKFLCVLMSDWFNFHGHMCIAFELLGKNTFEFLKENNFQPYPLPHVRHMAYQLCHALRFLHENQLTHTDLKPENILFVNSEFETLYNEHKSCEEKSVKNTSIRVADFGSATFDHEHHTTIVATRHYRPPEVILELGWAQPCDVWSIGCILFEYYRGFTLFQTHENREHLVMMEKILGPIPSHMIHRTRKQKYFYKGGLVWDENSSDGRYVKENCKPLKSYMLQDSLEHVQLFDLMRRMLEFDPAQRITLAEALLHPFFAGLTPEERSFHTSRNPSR

RIPK2 = RIPK2 (Homo sapiens, UniProt O43353); assay: KINOMEscan: RIPK2; format: binding; conditions: 100 nM, read-out: Percent Control
Sequence of RIPK2 (O43353 whole entry): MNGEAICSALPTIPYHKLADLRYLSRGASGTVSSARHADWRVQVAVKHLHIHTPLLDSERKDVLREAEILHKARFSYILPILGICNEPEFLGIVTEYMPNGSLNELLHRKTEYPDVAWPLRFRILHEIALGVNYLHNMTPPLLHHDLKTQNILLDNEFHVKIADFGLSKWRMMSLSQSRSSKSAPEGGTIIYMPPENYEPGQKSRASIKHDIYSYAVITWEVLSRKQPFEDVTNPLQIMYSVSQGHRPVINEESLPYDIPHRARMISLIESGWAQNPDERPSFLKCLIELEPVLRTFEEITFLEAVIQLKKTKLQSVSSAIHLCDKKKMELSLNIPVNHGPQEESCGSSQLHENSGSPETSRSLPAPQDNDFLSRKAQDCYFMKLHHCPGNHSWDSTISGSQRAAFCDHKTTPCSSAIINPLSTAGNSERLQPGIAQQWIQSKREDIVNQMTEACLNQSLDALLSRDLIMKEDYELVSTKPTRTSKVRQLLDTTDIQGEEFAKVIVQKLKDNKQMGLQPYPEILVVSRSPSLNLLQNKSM

FLT3(ITD,D835V) = FLT3(ITD,D835V) (Homo sapiens, UniProt P36888, D835V/ITD); assay: biochemical; parameters: DiscoverX KINOMEscan kinase panel, per cent of control (100 = no effect), single concentrations; conditions: per cent of control, KINOMEscan; read-out: Percent Control
Procedure: (§1) The structure and synthesis of VIP152 were recently described by Lücking et al.. (Fig. 1A); however, the selectivity of the molecule in cellular systems has yet to be explored. […] We also performed this experiment at 1000 nM, where CDK9 was inhibited at 99%. […] We found a strong concordance between our data and those of Lücking when comparing the most inhibited kinases. Potential off-target effects of VIP152 were next tested in vitro at a concentration of 10 µM for off-target activity against a broad range of receptors, transporters, ion channels, and enzymes (n = 138) using the Eurofins Diversity Panel. […] A Chemical structure of VIP152.

FLT3(ITD) = FLT3(ITD) (Homo sapiens, UniProt P36888, ITD); assay: biochemical; parameters: DiscoverX KINOMEscan kinase panel, per cent of control (100 = no effect), single concentrations; conditions: per cent of control, KINOMEscan; read-out: Percent Control
Procedure: as §1

EGFR(L747-T751del,Sins) = EGFR(L747-T751del,Sins) (Homo sapiens, UniProt P00533, DEL747-750/T751S); assay: biochemical; parameters: DiscoverX KINOMEscan kinase panel, per cent of control (100 = no effect), single concentrations; conditions: per cent of control, KINOMEscan; read-out: Percent Control
Procedure: as §1

[2] = biological target: EGFR(L747-S752del, P753S) (Homo sapiens, UniProt P00533, DEL747-752/P753S); assay: biochemical; parameters: DiscoverX KINOMEscan kinase panel, per cent of control (100 = no effect), single concentrations; conditions: per cent of control, KINOMEscan; read-out: Percent Control
Sequence of EGFR(L747-S752del, P753S) (P00533 with tags, fused parts or gaps DEL747-752/P753S): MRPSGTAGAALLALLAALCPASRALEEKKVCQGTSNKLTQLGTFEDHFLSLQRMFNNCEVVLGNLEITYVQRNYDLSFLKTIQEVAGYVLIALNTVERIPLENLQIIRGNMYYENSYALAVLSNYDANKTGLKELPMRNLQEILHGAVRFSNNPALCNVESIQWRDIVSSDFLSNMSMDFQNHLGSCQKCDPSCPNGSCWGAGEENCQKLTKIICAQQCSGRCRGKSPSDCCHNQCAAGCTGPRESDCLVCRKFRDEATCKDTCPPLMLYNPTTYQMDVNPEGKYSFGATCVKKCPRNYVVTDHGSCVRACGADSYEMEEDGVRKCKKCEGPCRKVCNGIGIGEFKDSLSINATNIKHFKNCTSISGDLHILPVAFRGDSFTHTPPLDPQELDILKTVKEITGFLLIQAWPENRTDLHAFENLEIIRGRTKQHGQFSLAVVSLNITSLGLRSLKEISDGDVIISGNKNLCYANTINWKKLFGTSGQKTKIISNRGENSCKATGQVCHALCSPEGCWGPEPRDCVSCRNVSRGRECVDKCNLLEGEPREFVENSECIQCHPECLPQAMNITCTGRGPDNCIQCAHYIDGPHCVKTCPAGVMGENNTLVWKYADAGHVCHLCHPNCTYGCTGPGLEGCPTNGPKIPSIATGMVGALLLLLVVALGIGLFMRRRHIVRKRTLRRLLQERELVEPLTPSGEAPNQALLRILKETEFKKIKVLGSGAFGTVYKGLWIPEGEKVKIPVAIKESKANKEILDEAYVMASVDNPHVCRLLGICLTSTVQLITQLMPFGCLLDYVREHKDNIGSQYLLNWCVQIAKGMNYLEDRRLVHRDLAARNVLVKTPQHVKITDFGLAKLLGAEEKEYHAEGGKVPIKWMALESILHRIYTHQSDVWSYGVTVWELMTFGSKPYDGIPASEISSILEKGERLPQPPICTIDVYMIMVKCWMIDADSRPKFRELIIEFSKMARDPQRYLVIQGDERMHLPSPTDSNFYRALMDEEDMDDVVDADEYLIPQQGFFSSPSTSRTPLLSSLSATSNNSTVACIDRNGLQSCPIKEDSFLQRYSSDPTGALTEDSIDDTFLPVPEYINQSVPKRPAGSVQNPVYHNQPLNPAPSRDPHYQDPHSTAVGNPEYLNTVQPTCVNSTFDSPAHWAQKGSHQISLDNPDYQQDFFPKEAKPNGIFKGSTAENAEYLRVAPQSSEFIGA
Procedure: as §1

[3] = biological target: EGFR(L747-E749del, A750P) (Homo sapiens, UniProt P00533, A750P/DEL747-749); assay: biochemical; parameters: DiscoverX KINOMEscan kinase panel, per cent of control (100 = no effect), single concentrations; conditions: per cent of control, KINOMEscan; read-out: Percent Control
Procedure: as §1

FLT3(ITD,F691L) = FLT3(ITD,F691L) (Homo sapiens, UniProt P36888, F691L/ITD); assay: biochemical; parameters: DiscoverX KINOMEscan kinase panel, per cent of control (100 = no effect), single concentrations; conditions: per cent of control, KINOMEscan; read-out: Percent Control
Procedure: as §1

Opiate μ(OP3, MOP) = Opiate μ(OP3, MOP) (Homo sapiens, UniProt P35372); assay: Eurofins Diversity Panel; format: binding; conditions: hum, Conc. 10 μM

For `COc1cc(F)ccc1-c1cc(Nc2cc(CS(C)(=N)=O)ccn2)ncc1F` (centres unmarked) [VIP152], the weight loss [1] was “did not observe any weight loss”, the median survival ([1]; vehicle 32 days) was 46 days and the “CD5+/CD19+ disease burden in peripheral blood” value ([1]; vs vehicle) was “statistically significantly lower”. The “spleen size and spleen disease burden at endpoint” value ([1]; vs vehicle) was “did not have significantly smaller spleens nor significant decrease in spleen disease burden”, the remaining binding at 1 µM (CDK4) was 71% and the remaining binding at 1 µM (AMPK-alpha1) was 91%. The remaining binding at 1 µM (MST1R) was 70%, the remaining binding at 1 µM (ABL2) was 65% and the remaining binding at 1 µM (CLK3) was 85%. For the same compound, the remaining binding at 0.1 µM (RIPK2) was 100%, the remaining binding at 0.1 µM (FLT3(ITD,D835V)) was 100% and the remaining binding at 0.1 µM (FLT3(ITD)) was 100%. For the same compound, the remaining binding at 0.1 µM (EGFR(L747-T751del,Sins)) was 100%, the remaining binding at 0.1 µM [2] was 93% and the remaining binding at 0.1 µM [3] was 100%. For the same compound, the remaining binding at 0.1 µM (FLT3(ITD,F691L)) was 99% and the inhibition at 10 µM (Opiate μ(OP3, MOP)) was 8%.

From PMC9898036, “VIP152 is a selective CDK9 inhibitor with pre-clinical in vitro and in vivo efficacy in chronic lymphocytic leukemia” (Leukemia, 2022)
